In ChEMBL document CHEMBL5500368, “Discovery of novel diaryl substituted isoquinolin-1(2H)-one derivatives as hypoxia-inducible factor-1 signaling inhibitors for the treatment of rheumatoid arthritis” (Eur J Med Chem, 2024):

What was measured:
[1] = Inhibition of HIF-1 (unknown origin) expressed in MH7A cells cotransfected with HRE and renilla luciferase assessed as reduction in luminescence signal preincubated for 1 hr under normoxic condition followed by 24 hrs incubation under hypoxic condition by dual luciferase reporter assay; conditions: Homo sapiens
[2] = Cytotoxicity against human MH7A cells

Compound | IC50 [1] [µM] | CC50 [2] [µM]
O=c1c2ccc(-c3ccccc3O)cc2ccn1CCc1ccccc1 | 0.91 | > 50
COc1ccc(-c2ccc3c(=O)n(CCc4ccccc4)ccc3c2)cc1 | 2.18 | > 50
O=c1c2ccc(-c3ccc(F)cc3)cc2ccn1CCc1ccccc1 | 6.21 | > 50
COc1ccccc1-c1ccc2c(=O)n(Cc3ccccc3F)ccc2c1 | 6.73 | > 50
COc1ccc(-c2ccc3c(=O)n(Cc4ccccc4F)ccc3c2)cc1 | 3.54 | > 50
COc1ccccc1-c1ccc2c(=O)n(CCc3ccccc3)ccc2c1 | 3.31 | > 50
O=c1c2ccc(-c3ccoc3)cc2ccn1Cc1ccccc1 | 5.92 | > 50
O=c1c2ccc(-c3ccc(O)cc3)cc2ccn1CCc1ccccc1 | 0.82 | > 50
COc1ccccc1-c1ccc(C(=O)NCCc2ccccc2F)nc1 | 4.57 | > 50
O=c1c2ccc(-c3ccoc3)cc2ccn1Cc1ccccc1F | 1.46 | > 50
O=c1c2ccc(-c3cccc(O)c3)cc2ccn1CCc1ccccc1 | 7.39 | > 50
